Consider 3 compounds from patent US11975050B2, “Parathyroid hormone polypeptide conjugates and methods of their use” (The General Hospital Corporation, priority 2018, dated 2024).

Like-named read-outs stand apart in the source and are kept apart here. Starred links: 1 amine or outer side, 2 acyl side, 3 side chain; linkers in the order of their positions; H or OH if unused. Non-standard residues stand in square brackets, D forms with d. Primed or numbered codes have the meaning given here. No end group written: not given here. K(Palm) = CCCCCCCCCCCCCCCC(=O)NCCCC[C@H](N[*:1])C(=O)[*:2]; PEG2′ = short PEG2 spacer in the linker

Data set [1] is described as follows: Pharmacokinetic properties in mice, hPTH(1-34) ELISA of plasma.
Method: (§1) Mice were injected IV via the tail vein or subcutaneously with ligands in vehicle (0.05% Tween 80; 10 mM citrate; 150 mM NaCl; pH 5.0) to give the intended final ligand dose (e.g. 50 nmol/kg body weight). At times immediately before (t=0) and after injection, tail vein blood was collected and analyzed for concentrations of administered peptides or blood ionized calcium (Ca^2+) measured with a RAPIDLAB 348 analyzer (SIEMENS Healthcare Diagnostic, United Kingdom).
The nature of data set [2]: Blood ionized calcium in mice after injection. In kind it is in vivo. The settings on record: single dose 10 nmol/kg i.v. The text has this: Data are means±SEM; n=6 mice per group.
In Vivo Testing of the Polypeptides Wild-type, ca. 10-week old male C57BL/6J mice were purchased from the Charles River Laboratories (Wilmington, Massachusetts, USA). The origin and method of breeding of Col1-H223R “Jansen's” transgenic mice is described by Calvi et al. (J. Clin. Invest. 107:277-286, 2001). Mice were maintained in facilities operated by the Center for Comparative Research of the Massachusetts General Hospital, and acclimated in the facilities for seven days prior to being used for study. All experimental procedures were approved by the MGH Institutional Animal Care and Use Committee (IACUC). In each study, animals were assigned randomly to treatment groups. Where possible, power calculations established that the number of animals used per study group was sufficient to detect statistically significant differences in intended primary experimental outcomes (i.e., changes in serum Ca and Pi).

The nature of data set [3]: Hypophosphatemic effect (total inorganic phosphorus) in mice. In kind it is in vivo. Conditions: as compared to PTH(1-34). The source says: Tail vein blood and spot urine were collected just prior to injection (t=0) and at the indicated times after injection.
Peptide doses for FIGS. 4A and 4B were 10 nmol/kg, while peptide doses were 50 nmol/kg for FIGS. 4C and 4D. T-test vs. vehicle: *p<0.05; PTH vs. Palm: +p<0.05. Mice were CD1 females, age 10 weeks. Data are means±SEM, n=6.

The target in another data set is T1, PTH receptor (Homo sapiens, UniProt Q03431).
T1 construct: endogenous in cells; host or cells: SaOS2-derived SGS-72 cells (human osteoblast line stably transfected with the GloSensor cAMP reporter)
T1 sequence (Q03431 27-593): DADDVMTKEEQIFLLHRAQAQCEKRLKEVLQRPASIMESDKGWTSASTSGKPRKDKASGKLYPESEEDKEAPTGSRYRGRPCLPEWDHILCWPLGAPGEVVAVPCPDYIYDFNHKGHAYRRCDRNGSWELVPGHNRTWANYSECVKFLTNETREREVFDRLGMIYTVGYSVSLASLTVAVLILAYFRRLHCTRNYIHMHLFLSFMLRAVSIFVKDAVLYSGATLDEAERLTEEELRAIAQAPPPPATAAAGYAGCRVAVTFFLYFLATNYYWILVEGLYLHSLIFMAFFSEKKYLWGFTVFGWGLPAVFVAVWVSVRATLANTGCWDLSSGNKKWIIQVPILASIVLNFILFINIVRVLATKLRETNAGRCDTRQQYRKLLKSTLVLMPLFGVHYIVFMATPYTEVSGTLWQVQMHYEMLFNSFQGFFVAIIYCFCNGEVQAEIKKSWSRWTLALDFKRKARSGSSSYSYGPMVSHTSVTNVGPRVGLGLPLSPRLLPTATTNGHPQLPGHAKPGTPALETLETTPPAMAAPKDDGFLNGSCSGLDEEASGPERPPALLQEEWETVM
Nature of the data set: cAMP signaling in SaOS2/glosensor (SGS-72) cells. The settings on record: for Max %: maximum cAMP response relative to PTH(1-34)-2009. It counts as cell-based. As for the experimental part:
The cells are derived from the human osteoblast cell line, SaOS2 by stable transfection with a glosensor cAMP reporter.
cAMP signaling was assessed in an SaOS2-derived cell line stably expressing the luciferase-based GloSensor™ cAMP reporter (Hattersley et al., Paper presented at: Novel Signaling Mechanisms and Bone Cell Biology 2014; Binkowski et al., Methods in Molecular Biology 756:263-271, 2011). The cells were seeded into 96-well white plates and were assayed 24 to 48 hours post-confluency. Assays were performed at room temperature in CO2-independent culture media (Life Technologies, Corp., Carlsbad, CA) containing 0.1% BSA (CIDB). […] The time at which maximum luminescence (cps) observed with agonist alone, typically at 10-20 minutes after agonist addition, was used to obtain data from wells containing antagonist with or without agonist, to thus generate antagonist ligand dose-response curves. The resulting cps values were then plotted against ligand concentration using GraphPad Prism 7.0 software and a four-parameter logistics curve fitting equation, which yielded parameters of inhibitory potency (pIC50).

For data set [4] the following is noted: mouse, in vivo, sc.
Method: as §1
Another data set is described as follows: in vivo. The settings on record: mouse, sc.

Method for in vivo: as §1

As a reminder, the AUC is concentration integrated over time. Low readings indicate less exposure, high ones more exposure. For orientation: Cmax means the highest concentration seen after dosing. Broadly, the Tmax is the time from dosing to the highest level. In general, half-life refers to the time needed for the level to fall by half in the phase considered. Consider `CCCCCCCCCCCCCCCC(=O)NCCCC[C@H](NC(=O)[C@H](CCC(=O)O)NC(=O)[C@H](Cc1ccc(O)cc1)NC(=O)[C@H](CCC(=O)O)NC(=O)COCCOCCNC(=O)[C@H](Cc1ccccc1)NC(=O)[C@H](CC(N)=O)NC(=O)[C@H](Cc1c[nH]cn1)NC(=O)[C@@H](NC(=O)[C@H](CC(=O)O)NC(=O)[C@H](CCC(N)=O)NC(=O)[C@H](CC(C)C)NC(=O)[C@H](CCCCN)NC(=O)[C@H](CCCCN)NC(=O)[C@H](CCCNC(=N)N)NC(=O)[C@H](CC(C)C)NC(=O)[C@H](Cc1c[nH]c2ccccc12)NC(=O)[C@H](CCC(=O)O)NC(=O)[C@@H](NC(=O)[C@H](CCCNC(=N)N)NC(=O)[C@H](CCC(=O)O)NC(=O)[C@H](CCSC)NC(=O)[C@H](CO)NC(=O)[C@H](CC(N)=O)NC(=O)[C@H](CC(C)C)NC(=O)[C@H](Cc1c[nH]cn1)NC(=O)[C@H](CCCCN)NC(=O)CNC(=O)[C@H](CC(C)C)NC(=O)[C@H](CC(N)=O)NC(=O)[C@H](Cc1c[nH]cn1)NC(=O)[C@H](CCSC)NC(=O)[C@H](CC(C)C)NC(=O)[C@H](CCC(N)=O)NC(=O)[C@@H](NC(=O)[C@H](CCC(=O)O)NC(=O)[C@H](CO)NC(=O)[C@@H](NC(=O)[C@@H](N)CO)C(C)C)[C@@H](C)CC)C(C)C)C(C)C)C(=O)N[C@@H](CCC(=O)O)C(=O)N[C@@H](Cc1ccc(O)cc1)C(=O)N[C@@H](CCC(=O)O)C(N)=O` [Palm-PTH(1-34)-2027, Palm-PTH(1-34)], for which the total area-under-the-curve in data set [1] (mice, single injection 10 mnol/kg s.c.) was determined as 0.116 µM·h. In data set [1] (mouse, plasma, sc, 10 nmol/kg), the AUC was determined as 0.116 µM·h, the concentration peaked (Cmax) at 28.1 nM, the time of peak concentration (Tmax) amounted to 60 min and the half-life is 114 min. In addition, in data set [2], the “duration of increase of blood Ca2+ levels” value is on record as “at least 24 hours”. For the same compound, the hypophosphatemic effects result in data set [3] is reported as “prolonged hypophosphatemic effects”.

In the case of “W1-Palm-PTH(1-34) (WVSEIQLMHNLGKHLNSMERVEWLRKKLQDVHNF[PEG2′]EYE-{K(Palm)-Glu-Tyr-Glu-NH2}) [Trp1-Palm-PTH(1-34)-2029]”, the “pEC50 (log molar concentration to attain 50% of maximum response observed with PTH(1-34)-2009)” value with PTH receptor (SaOS2/glosensor (SGS-72) cells, means ± SEM, n = 5) was found to be 8.72 ± 0.15. For the same compound, in the data set with PTH receptor (SaOS2/glosensor (SGS-72) cells, read-out: EC50, concentration in nM shown below pEC50 (converted)), the EC50 is 1.91 nM. Besides, the Max % in the data set with PTH receptor (means ± SEM) was determined as 77 ± 8%.

On to `CC[C@H](C)[C@H](NC(=O)[C@H](CCC(=O)O)NC(=O)[C@H](CO)NC(=O)[C@@H](NC(=O)[C@@H](N)CO)C(C)C)C(=O)N[C@@H](CCC(N)=O)C(=O)N[C@@H](CC(C)C)C(=O)N[C@@H](CCSC)C(=O)N[C@@H](Cc1cnc[nH]1)C(=O)N[C@@H](CC(N)=O)C(=O)N[C@@H](CC(C)C)C(=O)NCC(=O)N[C@@H](CCCCN)C(=O)N[C@@H](Cc1cnc[nH]1)C(=O)N[C@@H](CC(C)C)C(=O)N[C@@H](CC(N)=O)C(=O)N[C@@H](CO)C(=O)N[C@@H](CCSC)C(=O)N[C@@H](CCC(=O)O)C(=O)N[C@@H](CCCNC(=N)N)C(=O)N[C@H](C(=O)N[C@@H](CCC(=O)O)C(=O)N[C@@H](Cc1c[nH]c2ccccc12)C(=O)N[C@@H](CC(C)C)C(=O)N[C@@H](CCCNC(=N)N)C(=O)N[C@@H](CCCCN)C(=O)N[C@@H](CCCCN)C(=O)N[C@@H](CC(C)C)C(=O)N[C@@H](CCC(N)=O)C(=O)N[C@@H](CC(=O)O)C(=O)N[C@H](C(=O)N[C@@H](Cc1cnc[nH]1)C(=O)N[C@@H](CC(N)=O)C(=O)N[C@@H](Cc1ccccc1)C(N)=O)C(C)C)C(C)C` [PTH(1-34)-2009, PTH(1-34)], for which the Max % at PTH receptor (means ± SEM) worked out at 100 ± 0%. The same compound showed a Cmax in data set [1] (mouse, plasma, sc, 10 nmol/kg) of 0.65 nM. In addition, in data set [2], the “duration of increase of blood Ca2+ levels” value was at most 4 h. Further, the total area-under-the-curve in data set [4] stood at 0.00043 µM·h. For the same compound, the half-life in the data set “in vivo” is 12 min. In addition, in the data set “in vivo” (10 nmol/kg), the AUC was found to be 0.00043 µM·h and the half-life is 12 min.
